From patent publication EP2103618A1, “Novel ansamitocin derivatives” (Leibniz Universität Hannover, priority 2008, dated 2009)
Values after ≈ are worked out from the molar mass of the structure shown.

Key:
Assay type in all cases: cell-based
[1] = test system: cultured human tumor cell lines; assay: Growth inhibition, statements across the whole panel of cell lines; details: for activity among the compounds tested: in general, across the cell lines, result in words
Protocol: (§1) For the detailed evaluation of their biological profile as anti-cancer agents, cultured human tumor cell lines were treated with the new ansamitocin derivatives. In particular, the 19-fluoro-20-demethoxyansamitocin P3 (F-A), 19-chloro-20-demethoxyansamitocin P3 (Cl-A), 19-bromo-20-demethoxyansamitocin P3 (Br-A), and the 20-demethoxy-19-vinylansamitocin P3 (VI) were tested for their inhibitory effect on cell growth of different cell lines, namely KB-3-1, U-937, PC-3, SK-OV-3, A-498, A-431, and A-549, in comparison to natural biosynthesis product Ansamitocin P-3 (AP-3). Growth inhibition was measured in microtiter plates. 60 µl of serial dilutions of the test compounds were added to aliquots of 120 µl of the suspended cells (50000/ml). After 5 days the growth was determined using a MTT assay, except for U-937, where the WST-1 assay from Roche was employed.

A-431 = assay: Growth inhibition of cultured human tumor cell lines in microtiter plates, MTT assay; details: A-431, Epidermoid carcinoma, 5 days; for IC50: Homo sapiens, 120 h, read-out: Antiproliferative activity IC50
Protocol: as §1

A-498 = assay: as above; details: A-498, Kidney carcinoma, 5 days; for IC50: Homo sapiens, A498, 120 h, read-out: Antiproliferative activity IC50
Protocol: as §1

A-549 = assay: as above; details: A-549, Lung carcinoma, 5 days; for IC50: Homo sapiens, A549, 120 h, read-out: Antiproliferative activity IC50
Protocol: as §1

KB-3-1 = assay: as above; details: KB-3-1, Cervix carcinoma, 5 days; for IC50: Homo sapiens, 120 h, read-out: Antiproliferative activity IC50
Protocol: as §1

PC-3 = assay: as above; details: PC-3, Prostate carcinoma, 5 days; for IC50: Homo sapiens, 120 h, read-out: Antiproliferative activity IC50
Protocol: as §1

SK-OV-3 = assay: as above; details: SK-OV-3, Ovarian carcinoma, 5 days; for IC50: Homo sapiens, 120 h, read-out: Antiproliferative activity IC50
Protocol: as §1

U-937 = assay: Growth inhibition of cultured human tumor cell lines in microtiter plates, WST-1 assay; details: U-937, Lymphoma, 5 days; for IC50: Homo sapiens, 120 h, read-out: Antiproliferative activity IC50
Protocol: as §1

Row | Molecule | activity among the compounds tested [1] | IC50 (A-431) [ng/mL] | IC50 (A-498) [ng/mL] | IC50 (A-549) [ng/mL] | IC50 (KB-3-1) [ng/mL] | IC50 (PC-3) [ng/mL] | IC50 (SK-OV-3) [ng/mL] | IC50 (U-937) [ng/mL] | other results
1 | 19-fluoro-20-demethoxyansamitocin P3 [F-A] | most active | – | – | – | – | – | – | – | –
2 | 20-demethoxy-19-vinylansamitocin P3 | most active | – | – | – | – | – | – | – | –
3 | COc1cc2cc(c1Cl)N(C)C(=O)C[C@H](OC(=O)C(C)C)[C@]1(C)O[C@H]1[C@H](C)[C@@H]1C[C@@](O)(NC(=O)O1)[C@H](OC)/C=C/C=C(\C)C2 [AP-3, Ansamitocin P-3, reference compound] | – | 0.05 (≈ 0.0787 nM) | 1.1 (≈ 1.73 nM) | 0.1 (≈ 0.157 nM) | 0.11 (≈ 0.173 nM) | 0.035 (≈ 0.0551 nM) | 0.03 (≈ 0.0472 nM) | 0.0035 (≈ 0.00551 nM) | –
4 | CO[C@@H]1/C=C/C=C(\C)Cc2ccc(Br)c(c2)N(C)C(=O)C[C@H](OC(=O)C(C)C)[C@]2(C)O[C@H]2[C@H](C)[C@@H]2C[C@@]1(O)NC(=O)O2 [Br-A, 19-bromo-20-demethoxyansamitocin P3] | – | – | – | – | – | – | – | – | Antiproliferative activity IC50 (A-431): 0.1 ng/mL; Antiproliferative activity IC50 (A-498): 4 ng/mL; Antiproliferative activity IC50 (A-549): 0.3 ng/mL; Antiproliferative activity IC50 (KB-3-1): 0.3 ng/mL; Antiproliferative activity IC50 (PC-3): 0.1 ng/mL; Antiproliferative activity IC50 (SK-OV-3): 0.05 ng/mL; Antiproliferative activity IC50 (U-937): 0.03 ng/mL
5 | CO[C@@H]1/C=C/C=C(\C)Cc2ccc(Cl)c(c2)N(C)C(=O)C[C@H](OC(=O)C(C)C)[C@]2(C)O[C@H]2[C@H](C)[C@@H]2C[C@@]1(O)NC(=O)O2 [Cl-A, 19-chloro-20-demethoxyansamitocin P3] | – | 0.15 (≈ 0.248 nM) | 3 (≈ 4.96 nM) | 0.4 (≈ 0.661 nM) | 0.35 (≈ 0.578 nM) | 0.12 (≈ 0.198 nM) | 0.1 (≈ 0.165 nM) | 0.035 (≈ 0.0578 nM) | activities weaker than that of the natural AP-3 [1]: 3-50 times
6 | CO[C@@H]1/C=C/C=C(\C)Cc2ccc(F)c(c2)N(C)C(=O)C[C@H](OC(=O)C(C)C)[C@]2(C)O[C@H]2[C@H](C)[C@@H]2C[C@@]1(O)NC(=O)O2 [F-A, 19-fluoro-20-demethoxyansamitocin P3] | – | 0.04 (≈ 0.0679 nM) | 2 (≈ 3.4 nM) | 0.11 (≈ 0.187 nM) | 0.18 (≈ 0.306 nM) | 0.035 (≈ 0.0595 nM) | 0.035 (≈ 0.0595 nM) | 0.01 (≈ 0.017 nM) | –
